Key:
[1] = Water solubility of polymorphs; assay type: physicochemical; conditions: compared with the higher melting polymorph
[2] = Oral bioavailability of polymorphs; assay type: in vivo; conditions: compared to the higher melting form
ACAT = experiment: Systemic ACAT inhibitory activity; assay type: in vivo; conditions: oral, compared to the higher melting form
[3] = target: T1, Acyl-CoA: Cholesterol Acyltransferase (ACAT) (Rattus norvegicus, UniProt Q7TQM4); experiment: Inhibition of Acyl-CoA:Cholesterol Acyltransferase (ACAT) in hepatic microsomes; assay type: biochemical, Sprague Dawley rat; conditions: rat hepatic microsomes, 14C-oleoyl-CoA, 37° C., pH 7.4; read-out: In Vitro ACAT IC50
T1 construct: centrifuged at 105,000×g for 1 hour to pellet the microsomes; from tissue; host or cells: liver microsomes of fasted male Sprague Dawley rats
T1 sequence (Q7TQM4 1-524): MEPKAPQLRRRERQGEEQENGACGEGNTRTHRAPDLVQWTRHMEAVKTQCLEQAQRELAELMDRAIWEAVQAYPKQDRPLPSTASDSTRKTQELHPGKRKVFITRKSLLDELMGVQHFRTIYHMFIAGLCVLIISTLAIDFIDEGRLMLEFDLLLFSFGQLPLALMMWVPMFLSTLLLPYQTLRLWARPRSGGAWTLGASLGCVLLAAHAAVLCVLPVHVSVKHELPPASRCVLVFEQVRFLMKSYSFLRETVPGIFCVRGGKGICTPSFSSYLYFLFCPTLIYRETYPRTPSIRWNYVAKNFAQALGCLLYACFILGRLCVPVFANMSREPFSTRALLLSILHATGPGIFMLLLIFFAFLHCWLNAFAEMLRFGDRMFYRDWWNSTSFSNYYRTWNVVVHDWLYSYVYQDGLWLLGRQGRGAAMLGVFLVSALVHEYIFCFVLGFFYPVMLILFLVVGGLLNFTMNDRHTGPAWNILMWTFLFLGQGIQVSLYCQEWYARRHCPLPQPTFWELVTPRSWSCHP
Procedure: A. Assay of the Inhibition of Acyl-CoA: Cholesterol Acyltransferase (ACAT) in Hepatic Microsomes
The ability of the compounds to inhibit ACAT, the enzyme responsible for the intracellular synthesis of cholesteryl esters, was tested as follows. Male Sprague Dawley rates weighing 150-300 g were fed rat chow ad libitum. The animals were fasted for twenty-four hours prior to being sacrificed by decapitation. The livers were perfused in situ with 50 ml of cold 0.25M sucrose, excised and homogenized in three volumes of 0.1M phosphate buffer, pH 7.4, that contained 0.5 mM EDTA (ethylenediaminetetraacetic acid), 1.0 mM glutathione, 0.25M sucrose and 20 mM leupeptin. Microsomes were obtained by differential centrifugation; the supernatant from an initial spin at 15,000×g for 15 minutes was centrifuged at 105,000×g for 1 hour to pellet the microsomes. The microsomes were suspended in homogenization buffer, reisolated by centrifugation, and stored at -70° C. Microsomes were used within one month of preparation.
The control assay in a final volume of 200 μl consisted of 200 μg of microsomal protein, 75 μM ^14 C-oleoyl-CoA (10,000 dpm/nmol) in 0.1M phosphate, pH 7.4, that contained 1 mM glutathione. Compounds were added in 5-10 μl of DMSO (dimethyl sulfoxide or ethanol) and additional controls were run with DMSO or ethanol only. All components, except the oleoyl-CoA, were preincubated for 15 min. at 37° C. prior to the initiation of the reaction by the addition of oleoyl CoA. The assay was terminated after 10 min by the addition of 4 ml of chloroform:methanol (2:1, v/v). 20,000 dpm of ^3 H-cholesteryl oleate and 10 μg of unlabeled cholesteryl oleate and oleic acid were added as an internal standard and carrier, respectively. After allowing 10 min. for lipid extraction, 0.8 ml of deionized water was added to separate the solution into two phases. The lower chloroform phase was collected, dried under nitrogen and resuspended in 100 μl of chloroform. The sample containing the neutral lipids was spotted onto a Gelman ITLC-SA polysilicic acid gel-impregnated sheet, which was developed using a hexane: diethyl ether: acetic acid (170:30:1 v/v/v) mobile phase. The lipids were visualized by their interaction with iodine vapor and the cholesteryl ester spot was scraped into a scintillation vial and counted. The specific activity of ACAT in the control incubation averaged 260 pmol/min/mg microsomal protein. The inhibition of ACAT activity by the compounds is shown in Table 7; the data are expressed as the concentration at which ACAT activity is inhibited by 50% (IC50).

[4] = system: murine macrophage-like cell line J744.A1; experiment: Inhibition of cholesterol esterification in mammalian cells (macrophage); assay type: cell-based; conditions: Mus musculus; J744.A1 macrophage-like cells loaded with ac-LDL, 14C oleic acid
Procedure: B. Assay of the Inhibition of Cholesterol Esterification in Mammalian Cells The esterification of cholesterol was determined in the murine macrophage-like cell line J744.A1. Cells were seeded in 35 mm wells at a density of 300,000 cells per well in 2 mls of Dulbecco's Modified Eagle Medium (DMEM) supplemented with 10% fetal bovine serum (FBS). Cells were incubated at 37° C. in an atmosphere of 5% CO2 and 93% humidity. After 24 hours the media was changed to 0.68 mls 10% FBS-DMEM containing 34 μg of acetylated human low density lipoprotein (ac-LDL) to increase the intracellular concentration of cholesterol and promote esterification. At 41 hours, various inhibitors were added to the cells in DMSO (10 μl/ml maximum). At 43 hours, the cells were pulsed with 0.1 mM ^14 C oleic acid (10,000 dpm/nmol) complexed with BSA (bovine serum albumin) to follow cholesterol ester formation. The experiment was terminated at 45 hours by washing the monolayers 3 times with 3 ml of Tris-buffered saline at 4° C. The lipids were extracted by incubating the monolayers with 1.5 ml of hexane: isopropanol (3:2, v/v) for 30 min. under gentle agitation. During this period, 10,000 dpm ^3 H-cholesteryl linoleate and 10 μg of cholesteryl oleate were added as an internal standard and carrier respectively. The organic solvent was remoted and the cells were washed with an additional 1.0 ml of hexane: isopropanol which was combined with the original extract. The cells were allowed to dry overnight, digested with 1.5 ml of 0.2 N sodium hydroxide for 1 hour and an aliquot of the solubilized protein used for protein determination using the Lowry method. […] Individual lipids were visualized with iodine and the cholesteryl ester spot cut out and transferred to scintillation vials to determine the amount of radioactivity.

With `CN(C(=O)c1ccc(C#N)cc1)C1N(C)C(c2ccc(C#N)cc2)=NC1(C(F)(F)F)C(F)(F)F` (stereo not drawn) [132°-134° melting polymorph, N-[4,4-bis[trifluoromethyl)-4,5-dihydro-1-methyl-2-[4-cyanophenyl]-1H-imidazol-5-yl]-N-methyl-4-cyanobenzamide] the “water solubility relative to the 181°-183° C. melting polymorph” value [1] was 3 fold, the oral bioavailability [2] was “greater oral bioavailability” and the “systemic ACAT inhibitory activity” value (ACAT) was “improved systemic ACAT inhibitory activity”.

In the case of `CN(C(=O)c1ccc(F)cc1)C1N(C)C(c2ccc(C#N)cc2)=NC1(C(F)(F)F)C(F)(F)F` (stereo not drawn) [Example Q, N-[4,4-bis(trifluoromethyl)-2-(4-cyanophenyl)-4,5-dihydro-1-methyl-1H-imidazol-5-yl]-N-methyl-4-fluorobenzamide], the IC50 [3] is reported as 1.91 µM and the IC50 [4] is reported as 34 µM.

`CC(C)c1ccc(NC(=O)N(C)C2N(C)C(c3ccc(F)cc3)=NC2(C(F)(F)F)C(F)(F)F)cc1` (stereo not drawn) [Example 27, N-[4,4-bis(trifluoromethyl)-2-(4-fluorophenyl)-4,5-dihydro-1-methyl-1H-imidazol-5-yl]-N'-4-isopropylphenyl-N-methylurea] showed an IC50 [3] of 3 µM and an IC50 [4] of 16 µM.

With `CN(C(=O)c1ccc(F)cc1)C1N(C)C(c2ccc(F)cc2)=NC1(C(F)(F)F)C(F)(F)F` (stereo not drawn) [Example 10A, N-[4,4-bis(trifluoromethyl)2-(4-fluorophenyl)-4,5-dihydro-1-methyl-1H-imidazol-5-yl]-4-fluorophenyl-N-methylbenzamide] the IC50 [3] was 22 µM and the IC50 [4] was 105 µM.

In the case of `CN1C(c2ccc(F)cc2)=NC(C(F)(F)F)(C(F)(F)F)C1=NC(=O)c1ccc(F)cc1` [Example 2, N-[4,4-bis(trifluoromethyl)-2-(4-fluorophenyl)-4,5-dihydro-1-methyl-1H-imidazol-5-ylidene]-4-fluoro-benzamide], the IC50 [3] is reported as 20 µM and the IC50 [4] is reported as > 100 µM.

Compound `CCCCOc1ccc(C(=O)N(C)C2N(C)C(c3ccc(F)cc3)=NC2(C(F)(F)F)C(F)(F)F)cc1` (stereo not drawn) [Example 11, N-[4,4-bis(trifluoromethyl)-2-(4-fluorophenyl)-4,5-dihydro-1-methyl-1H-imidazol-5-yl]-4-butoxy-N-methylbenzamide] has an IC50 [3] of 2 µM and an IC50 [4] of 14 µM.

In the case of `Cc1ccc(C(=O)N=C2N(C)C(c3ccc(C)cc3)=NC2(C(F)(F)F)C(F)(F)F)cc1` [Example 5], the IC50 [3] is reported as 20 µM and the IC50 [4] is reported as 62 µM.

Reference: patent US5428041A, “Antihypercholesterolemic bis-trifluoromethyl-substituted imidazolines and derivatives thereof” (The Du Pont Merck Pharmaceutical Company, priority 1992, dated 1995)
